Measured values published in patent US7347997B1, “Method of using a feedstuff additive” (priority 1998, dated 2008).
Where two headings read alike, the source gives them in different places.

Experiments:
weaned piglets = conditions: pig, in vivo

Compound: C=C1[C@@H]2O[C@@H]3C=C(C)C(=O)[C@@H](O)[C@]3(CO)[C@@]1(C)C[C@H]2O [DOM-1]
- concentration without any adverse effect on the cell activity (chicken lymphocytes; checking after 28 and after 44 hours): 58 µg/mL
- concentration without apparent change of proliferation foci / no negative effects on the cell culture (chicken lymphocytes; checking after 20 hours, listed as DOM): ≤ 58 µg/mL
- concentration without apparent change of proliferation foci / no negative effects on the cell culture (chicken lymphocytes; checking after 20 hours, listed as deepoxymetabolite): 58 µg/mL

Compound: CC1=C[C@H]2O[C@@H]3[C@H](O)C[C@](C)([C@@]2(CO)[C@H](O)C1=O)[C@]31CO1 [DON, deoxynivalenol]
- action on the cell culture (chicken lymphocytes): marked damage to the cells
- concentration from which a marked adverse effect on the cell activity is present (chicken lymphocytes; checking after 20 hours): ≥ 0.625 µg/mL
- FCR (weaned piglets): 1.79
- Feedstuff intake/animal/day (weaned piglets): 226.3
- Losses (total) (weaned piglets): 0
- Weight increase/animal/day (weaned piglets): 126.2 g
